The text below walks through data of ChEMBL document CHEMBL3272002, “Central nervous system depressants. 13. s-Triazolo-1,5-benzodiazepin-5-ones” (1976).

Assay [1] relates to Mus musculus. The assay can be described thus: Anticonvulsant activity in ip dosed CF-1 mouse assessed as reduction of strychnine-induced response. In kind it is functional. The conditions noted are these: CF-1, ip.
Assay [2] concerns Mus musculus. In words: Reduction in hypoxic stress in ip dosed CF-1 mouse. Format: functional. The conditions noted are these: CF-1, ip.
In assay [3] the test system is Mus musculus. The assay can be described thus: Anticonvulsant activity in ip dosed CF-1 mouse assessed as reduction of pentylenetetrazole-induced response. Format: functional. The conditions noted are these: CF-1, ip.
For assay [4], the system named is Mus musculus. The assay can be described thus: Inhibition of nicotine-induced response in ip dosed CF-1 mouse. The conditions noted are these: CF-1, ip. Format: functional.
The subject of assay [5] is Mus musculus. The assay can be described thus: Anticonvulsant activity in CF-1 mouse assessed as reduction of pentylenetetrazole-induced response at 100 mg/kg, ip. In kind it is functional, organism-based. Also noted: dose 100 mg/kg.
The subject of assay [6] is Mus musculus. The assay can be described thus: Reduction in hypoxic stress in CF-1 mouse at 100 mg/kg, ip. Also noted: dose 100 mg/kg. In kind it is functional, organism-based.
Assay [7] has as its system Mus musculus. The assay can be described thus: Anticonvulsant activity in CF-1 mouse assessed as reduction of strychnine-induced response at 100 mg/kg, ip. Format: functional, organism-based. Also noted: dose 100 mg/kg.
The test system of assay [8] is Mus musculus. In words: Inhibition of nicotine-induced response in CF-1 mouse at 100 mg/kg, ip. Format: functional, organism-based. Also noted: dose 100 mg/kg.

The structures appear in SMILES notation. Activity calls are given as the source filed them. The rule behind the calls is not given here.

As to `CNC1=Nc2ccc(Cl)cc2C(c2ccccc2)=[N+]([O-])C1` [CHLORDIAZEPOXIDE], the ED50 (as a rule, the midpoint of the dose-response relation) in the assay with Mus musculus [1] amounted to 13 mg/kg; in the assay with Mus musculus [2], 10.5 mg/kg; in the assay on Mus musculus [3], 2.6 mg/kg; with Mus musculus [4], 1 mg/kg.
Turning to `CN(C)Cc1nnc2n1-c1ccc(Cl)cc1N(c1ccccc1)C(=O)C2`, the ED50 in the assay on Mus musculus [3] is 25 mg/kg; in the assay with Mus musculus [4], 89 mg/kg.
In the case of `Cc1nnc2n1-c1ccc(Cl)cc1N(c1ccccc1)C(=O)C2`, the 50% effective dose (ED50) was determined as 28 mg/kg in the assay on Mus musculus [1], 60 mg/kg with Mus musculus [2], 7 mg/kg in the assay on Mus musculus [3] and 5 mg/kg in the assay with Mus musculus [4].
On to `O=C1Cc2nnc(CCl)n2-c2ccc(Cl)cc2N1c1ccccc1`, for which the outcome in the assay with Mus musculus [5], with Mus musculus [6] and with Mus musculus [7] was inactive. Further, the inhibition entry in the assay with Mus musculus [8] was “inactive”.
